Test results from the supplement of paper PMC11061612.

Tests used:
Assay in all cases: Bliss excess, mean over the matrix (fraction); higher = more synergy
[1] = tested on: BT-549 (Breast Carcinoma)
How it was run: (§1)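 Bliss excess equals the observed combination effect minus the expected value EA + EB − EA·EB, where EA and EB are the effects of each agent alone. Combination Emax is the second-highest inhibition within the matrix. Inhibition was scaled from CellTiter-Glo 2.0 luminescence, with 0 set by vehicle wells and 1 by blank wells, after 72 hours of two-drug dosing of cells plated in 1536-well plates.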

[2] = tested on: HGC-27 (Gastric Carcinoma)
How it was run: as §1

[3] = tested on: VA-ES-BJ (Other Solid Carcinomas)
How it was run: as §1

[4] = tested on: HOP-62 (Lung Adenocarcinoma)
How it was run: as §1

[5] = tested on: PWR-1E (Non-Cancerous)
How it was run: as §1

[6] = tested on: NEC8 (Other Solid Carcinomas)
How it was run: as §1

[7] = tested on: EFM-19 (Breast Carcinoma)
How it was run: as §1

[8] = tested on: OVCAR-4 (Ovarian Carcinoma)
How it was run: as §1

[9] = tested on: NUGC-3 (Gastric Carcinoma)
How it was run: as §1

[10] = tested on: Hs-766T (Pancreatic Carcinoma)
How it was run: as §1

[11] = tested on: NCI-H1915 (Non-Small Cell Lung Carcinoma)
How it was run: as §1

[12] = tested on: SW13 (Other Solid Carcinomas)
How it was run: as §1

[13] = tested on: LU-65 (Non-Small Cell Lung Carcinoma)
How it was run: as §1

[14] = tested on: KMOE-2 (Acute Myeloid Leukemia)
How it was run: as §1

[15] = tested on: SU8686 (Pancreatic Carcinoma)
How it was run: as §1

[16] = tested on: MIA-PaCa-2 (Pancreatic Carcinoma)
How it was run: as §1

[17] = tested on: MLMA (Other Blood Carcinomas)
How it was run: as §1

[18] = tested on: PANC-04-03 (Pancreatic Carcinoma)
How it was run: as §1

[19] = tested on: C-4-I (Cervical Carcinoma)
How it was run: as §1

[20] = tested on: NCI-H358 (Lung Adenocarcinoma)
How it was run: as §1

SMILES	Bliss excess [1]	Bliss excess [2]	Bliss excess [3]	Bliss excess [4]	Bliss excess [5]	Bliss excess [6]	Bliss excess [7]	Bliss excess [8]	Bliss excess [9]	Bliss excess [10]	Bliss excess [11]	Bliss excess [12]	Bliss excess [13]	Bliss excess [14]	Bliss excess [15]	Bliss excess [16]	Bliss excess [17]	Bliss excess [18]	Bliss excess [19]	Bliss excess [20]
COc1cccc(OCCCN)c1-c1cc(Nc2cnc(C#N)cn2)n[nH]1 [Prexasertib] + C=CCn1c(=O)c2cnc(Nc3ccc(N4CCN(C)CC4)cc3)nc2n1-c1cccc(C(C)(C)O)n1 [AZD1775] (first compound max 1 µM, partner max 1 µM)	0.0433	0.108	0.12	0.0474	0.0706	0.122	0.025	0.0205	0.0979	-0.0579	0.0494	0.0659	0.0474	0.0637	0.0024	0.143	0.0034	0.0208	0.0337	-0.0027
CC1(C)CCC(CN2CCN(c3ccc(C(=O)NS(=O)(=O)c4ccc(NCC5CCOCC5)c([N+](=O)[O-])c4)c(Oc4cnc5[nH]ccc5c4)c3)CC2)=C(c2ccc(Cl)cc2)C1 [Venetoclax] + CCN(CCO)CCCOc1ccc2c(Nc3cc(CC(=O)Nc4cccc(F)c4)[nH]n3)ncnc2c1 [AZD2811] (first compound max 1 µM, 7x7, partner max 1 µM)	-0.0111	0.0075	0.0108	-0.0222	-0.0234	-0.007	0.0005	0.0264	0.0083	-0.0372	0.0163	0.0311	-0.0556	-0.0506	-0.0364	-0.0362	-0.0633	-0.0565	0.0484	-0.0315
CC(=O)c1c(C)c2cnc(Nc3ccc(N4CCNCC4)cn3)nc2n(C2CCCC2)c1=O [Palbociclib] + Cn1cnc2c(F)c(Nc3ccc(Br)cc3Cl)c(C(=O)NOCCO)cc21 [Selumetinib] (first compound max 10 µM, 7x7, partner max 10 µM)	-0.0254	0.0403	-0.0518	-0.0079	-0.0609	-0.0233	-0.0313	-0.0471	-0.0178	-0.0221	-0.034	0.044	0.0042	-0.0028	-0.0971	0.0413	0.0398	-0.0213	-0.0119	-0.0489
Cn1cnc2c(F)c(Nc3ccc(Br)cc3Cl)c(C(=O)NOCCO)cc21 [Selumetinib] + C[C@@H]1COCCN1C2=NC(=NC(=C2)C3(CC3)[S@](=N)(=O)C)C4=C5C=CNC5=NC=C4 [AZD6738] (first compound max 10 µM, 7x7, partner max 10 µM)	-0.0936	-0.0513	-0.0714	-0.0175	-0.0381	-0.0014	-0.0188	0.0169	0.0428	-0.0794	-0.0264	0.0113	-0.0244	0.0544	-0.0168	0.0499	-0.106	0.0023	0.0615	-0.0816
Cc1c2c(nn1C)CSCc1cc(n(C)n1)CSc1cc(c3ccccc3c1)OCCCc1c(C(=O)O)n(C)c3c-2c(Cl)ccc13 [AZD5991] + Cc1cc2ncnn2cc1Nc1ncc2c(n1)n(C1CCOCC1)c(=O)n2C [AZD7648] (first compound max 1 µM, 7x7, partner max 10 µM)	-0.0523	-0.0131	-0.0239	-0.0758	-0.0363	-0.0056	-0.0215	-0.0073	-0.0237	-0.0936	-0.0226	0.0165	-0.105	-0.0085	-0.0366	-0.0385	-0.0001	-0.0242	-0.0135	-0.0836
Cn1cnc2c(F)c(Nc3ccc(Br)cc3Cl)c(C(=O)NOCCO)cc21 [Selumetinib] + C=CCn1c(=O)c2cnc(Nc3ccc(N4CCN(C)CC4)cc3)nc2n1-c1cccc(C(C)(C)O)n1 [AZD1775] (first compound max 10 µM, partner max 1 µM)	-0.0578	-0.052	-0.112	-0.0468	-0.0663	0.0185	-0.0121	-0.0698	-0.0757	-0.0559	-0.0462	-0.0576	0.0065	0.0111	-0.0089	0.0552	-0.0257	-0.0351	0.0083	-0.0471
Cc1c2c(nn1C)CSCc1cc(n(C)n1)CSc1cc(c3ccccc3c1)OCCCc1c(C(=O)O)n(C)c3c-2c(Cl)ccc13 [AZD5991] + C[C@@H](Nc1cc(F)cc(F)c1)c1cc(C(=O)N(C)C)cc2c(=O)cc(N3CCOCC3)oc12 [AZD8186] (first compound max 1 µM, 7x7, partner max 3 µM)	0.0621	0.0246	0.0068	-0.0421	-0.0134	0.008	-0.0123	0.0433	0.0052	-0.111	-0.0265	0.0293	-0.0428	-0.0378	-0.0002	-0.0095	0.0282	-0.0045	0.0655	-0.0519
Cc1c2c(nn1C)CSCc1cc(n(C)n1)CSc1cc(c3ccccc3c1)OCCCc1c(C(=O)O)n(C)c3c-2c(Cl)ccc13 [AZD5991] + C1CN(CCC1(C(=O)N[C@@H](CCO)C2=CC=C(C=C2)Cl)N)C3=NC=NC4=C3C=CN4 [Capivasertib] (first compound max 1 µM, 7x7, partner max 3 µM)	0.0274	0.0232	-0.0109	-0.0422	-0.0077	0.0812	0.0003	-0.0114	-0.0051	-0.0994	0.0103	0.0419	-0.013	-0.002	-0.0177	0.0125	0.0394	-0.0094	0.0117	-0.0179
NC1(C(=O)N[C@@H](CCO)c2ccc(Cl)cc2)CCN(c2ncnc3[nH]ccc23)CC1 [Capivasertib] + Cn1cnc2c(F)c(Nc3ccc(Br)cc3Cl)c(C(=O)NOCCO)cc21 [Selumetinib] (first compound max 10 µM, 7x7, partner max 10 µM)	0.01	-0.0414	0.0015	-0.0367	-0.0246	0.0013	-0.034	-0.0254	-0.0007	-0.0045	0.0366	0.102	-0.0119	0.0417	0.0012	0.0259	0.0032	0.0247	0.0609	-0.0396
CCN(CCO)CCCOc1ccc2c(Nc3cc(CC(=O)Nc4cccc(F)c4)[nH]n3)ncnc2c1 [AZD2811] + O=C(c1cc(Cc2n[nH]c(=O)c3ccccc23)ccc1F)N1CCN(C(=O)C2CC2)CC1 [Olaparib] (first compound max 1 µM, 7x7, partner max 10 µM)	-0.0015	-0.0122	0.0206	-0.0376	0.0243	0.0116	-0.0669	0.0234	0.0181	-0.0415	0.025	0.0345	0.0014	0.0545	-0.0075	0.0461	-0.0191	-0.0177	0.0328	-0.063
CC1(C)CCC(CN2CCN(c3ccc(C(=O)NS(=O)(=O)c4ccc(NCC5CCOCC5)c([N+](=O)[O-])c4)c(Oc4cnc5[nH]ccc5c4)c3)CC2)=C(c2ccc(Cl)cc2)C1 [Venetoclax] + C=CCn1c(=O)c2cnc(Nc3ccc(N4CCN(C)CC4)cc3)nc2n1-c1cccc(C(C)(C)O)n1 [AZD1775] (first compound max 1 µM, partner max 1 µM)	-0.0152	-0.0252	-0.0373	-0.0635	-0.0347	-0.0523	-0.0335	0.0002	-0.0656	-0.0049	-0.009	0.0496	0.041	-0.0226	-0.0317	0.0944	0.0421	-0.0597	-0.0535	0.0042
NC1(C(=O)N[C@@H](CCO)c2ccc(Cl)cc2)CCN(c2ncnc3[nH]ccc23)CC1 [Capivasertib] + CCN(CCO)CCCOc1ccc2c(Nc3cc(CC(=O)Nc4cccc(F)c4)[nH]n3)ncnc2c1 [AZD2811] (first compound max 10 µM, 7x7, partner max 1 µM)	-0.0197	-0.0167	0.0367	0.0196	-0.0124	-0.0094	-0.0084	-0.0092	-0.0178	-0.0559	-0.0294	-0.0397	-0.215	-0.0154	-0.0212	0.0031	-0.0388	-0.0142	-0.0492	-0.0521
CCc1c2c(nc3ccc(O)cc13)-c1cc3c(c(=O)n1C2)COC(=O)[C@]3(O)CC [SN-38] + CN(C)CCCOc1ccc(-c2ccc3ncc4c(c3c2)n(C2CCOCC2)c(=O)n4C)cn1 [AZD0156] (first compound max 0.3 µM, 7x7, partner max 1 µM)	-0.0888	0.077	-0.0165	0.0182	0.0948	-0.0228	-0.064	-0.0149	0.0085	-0.0147	-0.0563	0.0279	-0.0148	-0.0089	-0.0327	0.0279	-0.0501	-0.0226	0.115	0.0282
Cc1c2c(nn1C)CSCc1cc(n(C)n1)CSc1cc(c3ccccc3c1)OCCCc1c(C(=O)O)n(C)c3c-2c(Cl)ccc13 [AZD5991] + CC1(C)CCC(CN2CCN(c3ccc(C(=O)NS(=O)(=O)c4ccc(NCC5CCOCC5)c([N+](=O)[O-])c4)c(Oc4cnc5[nH]ccc5c4)c3)CC2)=C(c2ccc(Cl)cc2)C1 [Venetoclax] (first compound max 1 µM, 7x7, partner max 1 µM)	0.0296	0.1	-0.0429	-0.0574	0.0087	0.0396	0.0055	0.0108	-0.0125	-0.132	-0.0211	0.0016	-0.0487	0.0141	-0.0391	-0.023	-0.0034	-0.0381	-0.0019	-0.0289
